Where a name gives a salt, the structure may show the parent alone.
What was measured:
[1] = molecular target: T1, IRE1α (Homo sapiens, UniProt O75460); experiment: In vitro FRET assay (XBP1 RNA probe cleavage by IRE1α); assay type: biochemical; design: purchased SignalChem; conditions: SignalChem IRE1α protein 2 nM
Procedure: In vitro FRET assay was performed to evaluate the ability of select compounds to inhibit IRE1, the results of which are summarized in Table 5. To perform the in vitro FRET assay, 1× complete assay buffer (CAB; […], 50 mM sodium citrate pH 7.15, 1 mM magnesium acetate, 0.02% tween 20) was used to dilute SignalChem IRE1α protein to a final concentration of 2 nM. Selected compounds were serially diluted with DMSO in a non-binding black 384-well plate for a total of 15 ul in each well. 2 ul of the serially diluted compound or DMSO control were then added to new wells containing 98 ul of 1×CAB, for a total volume of 100 ul, 10 ul of which were then transferred to wells of a new plate. 5 ul of the diluted IRE1α was then added to each well. 5 ul of a […] XBP1 RNA probe was then added to each well. Fluorescence was then read over 30 minutes in kinetic mode (485/515 nm).
Two RNA probes were used, XBP1 wildtype (SEQ ID NO: 2) which is able to be spliced by active IRE1α or XBP1 mutant (SEQ ID NO: 3) which is unable to be spliced. Each probe contained a 5′ 6-FAM modification and a 3′ IOWA Black FQ modification.
A second FRET assay was performed to assess ATP-mediated inhibition. In this case, compounds and IRE1α were prepared and combined as discussed above, with the addition of ATP up to 1 mM final concentration. This mixture was incubated at room temperature for 60 minutes and then 5 ul of 400 nM XBP1 wildtype or mutant RNA probe was added. Plates were then read over 30 minutes in kinetic mode (485/515 nm).
Target sequence in this assay (O75460 468-977 limits assumed): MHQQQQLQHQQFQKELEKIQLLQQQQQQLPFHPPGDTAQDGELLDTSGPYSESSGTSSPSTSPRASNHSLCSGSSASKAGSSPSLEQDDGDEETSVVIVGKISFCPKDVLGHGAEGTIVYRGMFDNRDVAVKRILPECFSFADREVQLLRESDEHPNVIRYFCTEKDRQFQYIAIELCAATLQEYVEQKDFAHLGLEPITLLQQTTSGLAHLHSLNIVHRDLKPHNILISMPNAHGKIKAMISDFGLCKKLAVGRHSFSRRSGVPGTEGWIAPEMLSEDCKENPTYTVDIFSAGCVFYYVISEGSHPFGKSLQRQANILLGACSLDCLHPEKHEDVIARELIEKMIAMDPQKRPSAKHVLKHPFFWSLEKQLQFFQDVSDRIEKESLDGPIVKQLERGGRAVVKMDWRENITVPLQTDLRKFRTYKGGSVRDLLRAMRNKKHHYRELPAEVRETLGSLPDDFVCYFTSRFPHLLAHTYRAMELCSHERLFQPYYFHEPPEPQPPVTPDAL

[2] = molecular target: T1, IRE1α; experiment: IRE1α Endoribonuclease Nanoluciferase Assay (XBP1 luciferase reporter, 293T cells); assay type: cell-based; design: endogenous in cells; host or cells: 293T cells; conditions: 293T cells transfected with XBP1 luciferase reporter plasmid, stressors +/- inhibitors
Procedure: Compounds disclosed herein were assessed for disruption of IRE-1 signaling using a IRE1α Endoribonuclease Nanoluciferase Assay. Briefly, 2.5×10^6 293T cells were seeded in a 10 cm^2 tissue culture plate. About 24 hours later, the cells were transfected with Effectene. In a 15 mL Tube, the following was added: 2 μg XBP1 luciferase reporter plasmid (PGK-Luc2-P2A-XBP1u-Nanoluciferase-PEST); 300 μl EC buffer; and 16 μl Enhancer, followed by incubation at room temp for 5 minutes. Next, 60 μl Effectene (Qiagen 301427) was added, followed by incubation at room temperature for 10 minutes. 2.6 mL cDMEM media was added. Old media was aspirated from the cells, followed by addition of 7 mL fresh media. Full transfection mixture was added dropwise to cells. Cells were incubated for 6 hours, followed by tripsinization, centrifugation and resuspension in 11 mL media. 100 uL of cells were plated per a well in a 96 well plate. A day later, stressors of choice +/− inhibitors were added. To harvest, media was aspirated from cells completely, then 50 uL 1× passive lysis buffer (Promega: E1941) was added per well and put on shaker (300 rpm) for 30 minutes at room temperature. Cells were centrifuged, and 15 uL sample per well was added to a new, opaque white 384 well plate (Corning 3570). 15 uL OneGlo (nanoluciferase kit, Promega N1630) was added. Plates were spun down, placed on shaker (300 rpm) for 10 minutes. Plates were read on luminometer, 1000 ms integration time per well. 15 uL Stop and Glo (nanoluciferase kit) was added. Plates were spun down, placed on shaker (300 rpm) for 10 minutes. Plates were read on luminometer, 1000 ms second integration time per well. Recordings are provided below in Table 6.
Target sequence in this assay (O75460 19-977): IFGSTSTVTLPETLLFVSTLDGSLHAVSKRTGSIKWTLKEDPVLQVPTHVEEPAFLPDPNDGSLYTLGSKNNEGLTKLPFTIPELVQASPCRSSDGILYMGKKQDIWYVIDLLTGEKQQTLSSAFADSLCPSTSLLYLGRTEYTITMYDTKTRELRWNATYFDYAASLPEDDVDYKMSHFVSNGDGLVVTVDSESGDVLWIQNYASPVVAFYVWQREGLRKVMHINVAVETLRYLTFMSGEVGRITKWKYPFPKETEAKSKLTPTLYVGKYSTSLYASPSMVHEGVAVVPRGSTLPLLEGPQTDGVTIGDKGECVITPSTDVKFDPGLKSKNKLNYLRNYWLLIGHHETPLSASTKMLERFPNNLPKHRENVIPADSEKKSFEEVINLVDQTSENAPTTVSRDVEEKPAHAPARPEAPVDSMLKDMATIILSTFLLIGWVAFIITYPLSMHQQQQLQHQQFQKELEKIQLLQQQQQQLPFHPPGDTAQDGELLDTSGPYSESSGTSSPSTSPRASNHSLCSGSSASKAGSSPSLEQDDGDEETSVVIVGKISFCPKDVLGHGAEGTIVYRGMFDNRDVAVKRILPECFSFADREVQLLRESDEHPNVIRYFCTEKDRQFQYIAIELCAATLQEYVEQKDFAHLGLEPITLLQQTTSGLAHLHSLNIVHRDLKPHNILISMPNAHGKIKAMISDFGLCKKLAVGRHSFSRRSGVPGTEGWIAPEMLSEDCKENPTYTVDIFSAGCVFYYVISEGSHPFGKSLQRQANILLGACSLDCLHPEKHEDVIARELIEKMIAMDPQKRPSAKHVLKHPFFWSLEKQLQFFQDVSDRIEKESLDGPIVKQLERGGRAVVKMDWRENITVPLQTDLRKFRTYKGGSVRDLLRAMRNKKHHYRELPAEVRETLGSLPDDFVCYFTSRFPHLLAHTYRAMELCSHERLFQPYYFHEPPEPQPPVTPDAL

EC50 [1] [nM] | EC50 [2] [nM] | SMILES
≤ 5 | ≤ 5 | CCc1cc(-c2cc(NC(=O)Nc3ccc(CN4CCN(C)CC4)c(C(F)(F)F)c3)nn2C)cc2cnc(N[C@H]3CC[C@H](N)CC3)nc12 [Compound 31, 1-(5-(2-(((1r,4r)-4-aminocyclohexyl)amino)-8-ethylquinazolin-6-yl)-1-methyl-1H-pyrazol-3-yl)-3-(4-((4-methylpiperazin-1-yl)methyl)-3-(trifluoromethyl)phenyl)urea]
> 100 |  | CN1CCN(Cc2ccc(NC(=O)Nc3cc(-c4ccc5cc(NC6CCCCC6)ncc5c4)n(C)n3)cc2C(F)(F)F)CC1 [4; TFA]
≤ 5 | > 100 | CN1CCN(Cc2ccc(NC(=O)Nc3cc(-c4ccc5nc(NC6CCNCC6)ncc5c4)n(C)n3)cc2C(F)(F)F)CC1 [2; TFA]
> 100 | > 100 | CN1CCN(Cc2ccc(NC(=O)Nc3cc(-c4ccc5nc(NC6CCCCC6)ncc5c4)n(C)n3)cc2C(F)(F)F)CC1 [Compound 5, 1-(5-(2-(cyclohexylamino)quinazolin-6-yl)-1-methyl-1H-pyrazol-3-yl)-3-(4-((4-methylpiperazin-1-yl)methyl)-3-(trifluoromethyl)phenyl)urea]
5 to 50 | > 100 | Cc1cc(-c2cc(NC(=O)Nc3ccc(CN4CCN(C)CC4)c(C(F)(F)F)c3)nn2C)cc2cnc(N)nc12 [Compound 12, 1-(5-(2-amino-8-methylquinazolin-6-yl)-1-methyl-1H-pyrazol-3-yl)-3-(4-((4-methylpiperazin-1-yl)methyl)-3-(trifluoromethyl)phenyl)urea]

From patent US10934275B2, “IRE1 small molecule inhibitors” (Cornell University, priority 2016, dated 2021)
